From patent EP4692088A1, “COMPOUND ACTING AS WRN HELICASE INHIBITOR” (SHANGHAI JEYOU PHARMACEUTICAL CO., LTD., priority 2023, dated 2024)

How the values were obtained:
[1] = Pharmacokinetic test in mice; type: in vivo; settings: mouse; CD-1 mice, male, oral gavage, 10 mg/kg, plasma
Protocol: CD-1 mice were taken as test animals. Example 4, Example 22, and Comparative Example HRO761 were given by gavage. The drug concentrations in mouse plasma at different time points were determined by LC-MS/MS to investigate the pharmacokinetic characteristics of the compounds of the present disclosure in mice.
• Experimental drugs: Example 4, Example 22, and Comparative Example HRO761; • Animals: CD-1 mice, male, 24-25 g, purchased from Shanghai Jihui Laboratory Animal Care Co.,Ltd.
An appropriate amount of Example 4, Example 22, and Comparative Example HRO761 was weighed and sequentially added to an appropriate amount of dimethyl sulfoxide, solutol, and saline (final solvent: 5% DMSO + 10% solutol + 85% saline). The mixture was vortexed and sonicated to prepare a 1.0 mg/mL dosing solution.
Three mice in gavage groups of Example 4, Example 22, and Comparative Example HRO761 were administered by oral gavage after overnight fasting (dose: 10 mg/kg, administration volume: 10 mL/kg), and the mice were fed 4 h after administration.
(§1) 0.04 mL of blood was collected from the animals before administration and at 0.083 h, 0.25 h, 0.5 h, 1 h, 2 h, 4 h, 6 h, 8 h, and 24 h after administration, and anticoagulated with sodium heparin. Blood samples were placed on ice after collection, and plasma was separated by centrifugation (centrifugation conditions: 8000 rpm, 5 min). The collected plasma was stored at -80°C before analysis.
LC-MS/MS was used to determine the content of the test compound in mouse plasma after intragastric administration.
(§2) Based on the calculated concentrations of the compounds in plasma at different time points, the pharmacokinetic parameters of Example 4, Example 22, and Comparative Example HRO761 in mice were calculated using winnonlin software. The pharmacokinetic parameters of Example 4, Example 22, and Comparative Example HRO761 of the present disclosure are shown in Table 13.

[2] = test system: SW620 cells; test: γH2AX induction assay (HTRF Phospho-H2AX), SW620; type: cell-based; settings: Homo sapiens, SW-620 (MSS), incubated for 2-3 days, read-out: γ-H2AX induction SW-620 (EC50 nM)
Protocol: (§3) SW48, HCT116, and SW620 cells were plated into 96-well cell culture plates at a density of 15,000-25,000 cells/well and cultured overnight in a 37°C incubator. The test compounds, which were gradient-diluted with DMSO, were added and incubated for 2-3 days. The γ-H2AX level was detected using HTRF Phospho-H2AX (SER139) Detection Kits. The 4× Lysis buffer and Detection buffer were equilibrated to room temperature for later use. The 4× Lysis buffer was diluted to 1× Lysis buffer using ddH2O. After the medium was aspirated, 50 µL of 1× Lysis buffer was added to each well and shaken at room temperature for 30 minutes for lysis. 16 µL of lysate was transferred to a 384-well plate, followed by the addition of 4 µL of diluted antibody mixture (Phospho-H2AX d2 antibody and Phospho-H2AX Eu Cryptate antibody were each diluted 20-fold using Detection buffer, and the two antibodies were then mixed uniformly at a 1:1 volume ratio). The mixture was incubated at room temperature for 2-24 h, and fluorescence signals at […] and 615 nm were detected using a microplate reader. Parallel treatment plates were simultaneously set up in the experiment, and cell viability was detected using the CellTiter-Glo kit. The CellTiter-Glo reagent was equilibrated to room temperature, and an appropriate amount was added to the cell plate, followed by shaking at room temperature for 12 min. The luminescence signal was detected using a microplate reader.
(§4) The fluorescence signal values of DMSO-treated wells and positive drug-treated wells were used as negative and positive controls, respectively, to calculate the level of γ-H2AX induced by the compounds. The concentration-induction rate curve was fitted using the "log(agonist) vs. response -- Variable slope (four parameters)" equation in GraphPad Prism 8 software to obtain the EC50. [formula] [formula]

[3] = Pharmacokinetic test in rats; type: in vivo; settings: rat; SD rats, male, oral gavage, 10 mg/kg, plasma
Protocol: SD rats were taken as test animals. Example 4, Example 15, and Comparative Example HRO761 were given by gavage. The drug concentrations in rat plasma at different time points were determined by LC-MS/MS to investigate the pharmacokinetic characteristics of Example 4, Example 15, and Comparative Example HRO761 in rats.
• Experimental drugs: Example 4, Example 15, and Comparative Example HRO761; • Animals: SD rats, male, 240-260 g, purchased from Shanghai Jihui Laboratory Animal Care Co.,Ltd.
An appropriate amount of Example 4, Example 15, and Comparative Example HRO761 was weighed and added to an appropriate amount of dimethyl sulfoxide, solutol, and saline (final solvent: 5% DMSO + 10% solutol + 85% saline). The mixture was vortexed and sonicated to prepare a 1.0 mg/mL dosing solution.
The rats in gavage groups (3 rats per group) of Example 4, Example 15, and Comparative Example HRO761 were administered by oral gavage after overnight fasting (dose: 10 mg/kg, administration volume: 10 mL/kg), and the rats were fed 4 h after administration.
as §1, with “0.2” for “0.04”
The contents of Example 4, Example 15, and Comparative Example HRO761 in rat plasma after oral administration were determined by LC-MS/MS.
as §2, with “15,” for “22,”, “rats” for “mice”, “14.” for “13.”

[4] = test system: HCT116; test: γH2AX induction assay (HTRF Phospho-H2AX), HCT116; type: cell-based; settings: Homo sapiens, HCT-116, incubated for 2-3 days, read-out: γ-H2AX induction HCT-116 (EC50 nM)
Protocol: as §3, §4

[5] = test system: SW48; test: γH2AX induction assay (HTRF Phospho-H2AX), SW48; type: cell-based; settings: Homo sapiens, SW-48, incubated for 2-3 days, read-out: γ-H2AX induction SW-48 (EC50 nM)
Protocol: as §3, §4

Which AUC(0-inf) [1] does the source give for `CCc1c(N2CCN(C(=O)c3ncnc(C)c3O)CC2)c(=O)c2nn(C3=CCOCC3)nc2n1CC(=O)Nc1ccc(C(F)(F)F)cc1Cl` [Example 4] here?
Its AUC(0-inf) is 51500 ng·h/mL.

And the Cmax [1]?
The Cmax was 24800 ng/mL.

And the EC50 [2]?
The EC50 was over 10000 nM.

And the AUC(0-inf) [3]?
Its AUC(0-inf) is 170000 ng·h/mL.

And the Cmax [3]?
The Cmax was 19200 ng/mL.

And the EC50 [4]?
The EC50 was 128 nM.

What about the EC50 [5] of the same molecule?
Its EC50 is 53.8 nM.

Which EC50 [2] does the source give for `CCc1c(N2CCN(C(=O)c3ncnc(C)c3O)CC2)c(=O)c2nn(C3=CCOCC3)nc2n1CC(=O)Nc1cc(F)c(C(F)(F)F)cc1Cl` [Example 15] here?
Its EC50 is over 10000 nM.

And the AUC(0-inf) [3]?
The AUC(0-inf) was 46400 ng·h/mL.

What about the Cmax [3] of the same molecule?
Its Cmax is 9020 ng/mL.

And the EC50 [4]?
Its EC50 is 97.1 nM.

What about the EC50 [5] of the same molecule?
The EC50 was 62.9 nM.

Which AUC(0-inf) [1] does the source give for `CCc1c(N2CCN(C(=O)c3ncnc(C)c3O)CC2)c(=O)c2nn(C3=CCOCC3)nc2n1CC(=O)Nc1cc(F)c(Cl)cc1Cl` [Example 22] here?
The AUC(0-inf) was 83400 ng·h/mL.

And the Cmax [1]?
The Cmax was 24600 ng/mL.

What about the EC50 [2] of the same molecule?
The EC50 was over 10000 nM.

What about the EC50 [4] of the same molecule?
Its EC50 is 168 nM.

What about the EC50 [5] of the same molecule?
The EC50 was 128 nM.
